How the values were obtained:
[1] = target: T1, RccR (PA5438) (Pseudomonas aeruginosa, UniProt Q9HTC8); experiment: isothermal titration calorimetry; assay type: binding
T1 construct: tetramer in crystal

[2] = target: T1, RccR (PA5438); experiment: X-ray crystal structure of the complex, […] Å; assay type: binding; conditions: space group I222, four monomers each with KDPG; PDB code not given
[3] = target: RccR (PA5438) (Pseudomonas aeruginosa, UniProt Q9HTC8, S185A); experiment: biochemical
[4] = target: RccR (PA5438) (Pseudomonas aeruginosa, UniProt Q9HTC8, S183A); experiment: biochemical
RccR (PA5438) (Pseudomonas aeruginosa, UniProt Q9HTC8, S183A), sequence (Q9HTC8 whole entry S183A): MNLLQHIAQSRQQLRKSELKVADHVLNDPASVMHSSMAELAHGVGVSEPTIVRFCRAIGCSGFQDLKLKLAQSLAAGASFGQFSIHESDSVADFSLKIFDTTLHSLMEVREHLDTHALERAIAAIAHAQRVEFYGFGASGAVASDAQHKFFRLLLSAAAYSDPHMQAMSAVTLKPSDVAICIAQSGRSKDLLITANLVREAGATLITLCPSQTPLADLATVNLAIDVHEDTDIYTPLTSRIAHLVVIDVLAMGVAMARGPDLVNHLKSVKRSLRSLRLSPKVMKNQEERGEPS

[5] = target: RccR (PA5438) (Pseudomonas aeruginosa, UniProt Q9HTC8, S188A); experiment: biochemical
RccR (PA5438) (Pseudomonas aeruginosa, UniProt Q9HTC8, S188A), sequence (Q9HTC8 whole entry S188A): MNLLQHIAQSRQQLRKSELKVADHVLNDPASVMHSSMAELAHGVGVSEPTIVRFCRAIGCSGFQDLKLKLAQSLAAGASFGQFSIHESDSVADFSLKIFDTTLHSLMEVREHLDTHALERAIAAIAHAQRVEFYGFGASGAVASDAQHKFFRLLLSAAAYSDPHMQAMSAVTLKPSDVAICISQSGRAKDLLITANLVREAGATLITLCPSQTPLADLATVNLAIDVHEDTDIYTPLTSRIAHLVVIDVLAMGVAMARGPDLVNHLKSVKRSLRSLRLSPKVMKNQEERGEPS

T1 sequence (Q9HTC8 entry or part of it): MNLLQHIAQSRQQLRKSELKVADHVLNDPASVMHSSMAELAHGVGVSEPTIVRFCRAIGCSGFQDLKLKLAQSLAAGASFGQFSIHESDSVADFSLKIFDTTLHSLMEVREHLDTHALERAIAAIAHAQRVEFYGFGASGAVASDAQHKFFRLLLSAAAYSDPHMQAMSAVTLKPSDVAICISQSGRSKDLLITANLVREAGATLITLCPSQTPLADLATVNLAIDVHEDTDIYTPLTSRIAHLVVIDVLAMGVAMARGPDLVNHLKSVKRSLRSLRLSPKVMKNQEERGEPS
RccR (PA5438) (Pseudomonas aeruginosa, UniProt Q9HTC8, S185A), sequence (Q9HTC8 whole entry S185A): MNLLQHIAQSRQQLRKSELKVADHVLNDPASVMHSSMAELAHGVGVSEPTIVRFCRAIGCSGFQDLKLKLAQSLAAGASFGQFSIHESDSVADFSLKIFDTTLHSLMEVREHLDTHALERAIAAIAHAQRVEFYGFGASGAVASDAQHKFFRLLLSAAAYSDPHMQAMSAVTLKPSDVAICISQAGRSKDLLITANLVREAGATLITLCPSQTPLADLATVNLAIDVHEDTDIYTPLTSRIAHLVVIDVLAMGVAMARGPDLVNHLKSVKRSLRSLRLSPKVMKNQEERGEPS

SMILES: O=C(O)C(=O)C[C@H](O)[C@H](O)COP(=O)(O)O [KDPG]
- Kd [1]: 3.31 µM
- X-ray crystal structure of the complex, 1.9 Å [2]: Each monomer in this complex structure harbors a well-defined signal molecule KDPG
- Kd [3]: 21 µM
- Kd [4]: 28.7 µM
- Kd [5]: 15.7 µM

Reference: PMC10810197, “A KDPG sensor RccR governs Pseudomonas aeruginosa carbon metabolism and aminoglycoside antibiotic tolerance” (Nucleic Acids Research, 2023)
